In PubChem BioAssay (NCI):
Values joined by “and” are separate entries in the source; they are usually repeats but may differ in a detail not shown here. Equal values may be shown once.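 Five concentrations, 48 hours, 96-well plates. At the GI50, growth is halved. TGI: total growth inhibition.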

Columns and labels:
Test in all cases: NCI-60 cell line screen, 48 h
HCT-15 colon = test system: HCT-15 colon
NCI-H522 lung = test system: NCI-H522 lung
SF-295 CNS = test system: SF-295 CNS
U251 CNS = test system: U251 CNS
CCRF-CEM leukemia = test system: CCRF-CEM leukemia
HT29 colon = test system: HT29 colon
MCF7 breast = test system: MCF7 breast
SK-MEL-5 melanoma = test system: SK-MEL-5 melanoma
HCT-116 colon = test system: HCT-116 colon
SN12C renal = test system: SN12C renal

CC1C(=O)N(c2ccccc2)NC12CCCc1ccccc12 (stereo not given)
TGI (HCT-15 colon): > 100 µM
TGI (NCI-H522 lung): > 100 µM
TGI (SF-295 CNS): > 100 µM
TGI (U251 CNS): > 100 µM
TGI (CCRF-CEM leukemia): > 100 µM
TGI (HT29 colon): > 100 µM
TGI (MCF7 breast): > 100 µM
TGI (SK-MEL-5 melanoma): > 100 µM
TGI (HCT-116 colon): > 100 µM
TGI (SN12C renal): > 100 µM

COc1c(O)c(C=O)c2c(O)c(-c3c(C)cc4c(C(C)C)c(OC)c(O)c(C=O)c4c3O)c(C)cc2c1C(C)C
TGI (HCT-15 colon): 14 µM
TGI (NCI-H522 lung): 6.56 µM
TGI (SF-295 CNS): 17 µM
TGI (U251 CNS): 12.2 µM
TGI (CCRF-CEM leukemia): 37.6 µM
TGI (HT29 colon): 15.3 µM
TGI (SK-MEL-5 melanoma): 22.7 µM
TGI (HCT-116 colon): 5.39 µM
TGI (SN12C renal): 8.45 µM

CCNC(=S)N=Nc1c(O)[nH]c2ccc([N+](=O)[O-])cc12
TGI (HCT-15 colon): > 100 µM
TGI (SF-295 CNS): > 100 µM
TGI (U251 CNS): > 100 µM
TGI (CCRF-CEM leukemia): > 100 µM
TGI (HT29 colon): > 100 µM
TGI (MCF7 breast): > 100 µM
TGI (SK-MEL-5 melanoma): > 100 µM
TGI (HCT-116 colon): > 100 µM
TGI (SN12C renal): > 100 µM

Cc1ccc(S(=O)(=O)n2c3ccc(Br)cc3c3nc4ccccc4nc32)cc1
TGI (HCT-15 colon): > 100 µM
TGI (NCI-H522 lung): > 100 µM
TGI (SF-295 CNS): > 100 µM
TGI (U251 CNS): > 100 µM
TGI (CCRF-CEM leukemia): > 100 µM
TGI (HT29 colon): > 100 µM
TGI (SK-MEL-5 melanoma): > 100 µM
TGI (HCT-116 colon): > 100 µM
TGI (SN12C renal): > 100 µM

[Cl][Sn]([c]1ccccc1)([c]1ccccc1)[c]1ccccc1
GI50 (CCRF-CEM leukemia): 0.029 µM
TGI (CCRF-CEM leukemia): 0.156 µM
GI50 (SK-MEL-5 melanoma): 0.166 µM and 0.114 µM and 0.0408 µM
TGI (SK-MEL-5 melanoma): 0.325 µM and 0.242 µM and 0.158 µM
GI50 (SN12C renal): 0.031 µM and 0.0142 µM
TGI (SN12C renal): 0.114 µM and 0.0651 µM

COC(=O)C1CCC(=S)N1C(=O)c1ccccc1 (stereo not given)
TGI (HCT-15 colon): > 100 µM
TGI (NCI-H522 lung): > 100 µM
TGI (SF-295 CNS): > 100 µM
TGI (U251 CNS): > 100 µM
TGI (CCRF-CEM leukemia): > 100 µM
TGI (HT29 colon): > 100 µM
TGI (MCF7 breast): > 100 µM
TGI (SK-MEL-5 melanoma): > 100 µM
TGI (HCT-116 colon): > 100 µM

Cc1csc(NC23CC4CC(CC(C4)C2)C3)[n+]1C(P(=O)([O-])O)P(=O)(O)O (stereo not given)
TGI (HCT-15 colon): > 100 µM
TGI (NCI-H522 lung): > 100 µM
TGI (SF-295 CNS): > 100 µM
TGI (U251 CNS): > 100 µM
TGI (CCRF-CEM leukemia): > 100 µM
TGI (HT29 colon): > 100 µM
TGI (MCF7 breast): > 100 µM
TGI (SK-MEL-5 melanoma): > 100 µM
TGI (HCT-116 colon): > 100 µM

CCOc1ccc(N/C(=C(/C(Cl)=C(/Cl)N(CC)CC)[N+](=O)[O-])n2nnc3ccccc32)cc1
TGI (HCT-15 colon): 38.4 µM
TGI (SF-295 CNS): > 100 µM
TGI (U251 CNS): 28.1 µM
TGI (CCRF-CEM leukemia): > 100 µM
TGI (HT29 colon): 63.8 µM
TGI (MCF7 breast): > 100 µM
TGI (HCT-116 colon): 30.4 µM
TGI (SN12C renal): 49.6 µM

CCOC(=O)c1nc2ccc(C(F)(F)F)cc2nc1Oc1cc(OC)c(OC)c(OC)c1
TGI (HCT-15 colon): > 100 µM
TGI (SF-295 CNS): > 100 µM
TGI (U251 CNS): > 100 µM
TGI (HT29 colon): > 100 µM
TGI (MCF7 breast): > 100 µM
TGI (SK-MEL-5 melanoma): 96.4 µM
TGI (HCT-116 colon): > 100 µM
TGI (SN12C renal): > 100 µM

CCNCCCn1c2c(c3ccc(Cl)cc3c1=O)C(=O)c1cc(OC)cnc1-2
GI50 (HCT-15 colon): 1.02 µM
TGI (HCT-15 colon): 2.5 µM
GI50 (NCI-H522 lung): 0.263 µM
TGI (NCI-H522 lung): 24.5 µM
GI50 (U251 CNS): 0.219 µM
TGI (U251 CNS): 1.73 µM
GI50 (CCRF-CEM leukemia): 0.0239 µM
TGI (CCRF-CEM leukemia): 1.75 µM
GI50 (HT29 colon): 0.327 µM
TGI (HT29 colon): 2.03 µM
GI50 (SK-MEL-5 melanoma): 0.813 µM
TGI (SK-MEL-5 melanoma): 2.49 µM
GI50 (HCT-116 colon): 0.203 µM
TGI (HCT-116 colon): 1.56 µM
GI50 (SN12C renal): 0.675 µM
TGI (SN12C renal): 2.79 µM

CC1CCCC2(CC[N+](C)(CCC[N+](C)(C)C)CC2)C1 (stereo not given)
TGI (HCT-15 colon): > 100 µM
TGI (NCI-H522 lung): > 100 µM
TGI (SF-295 CNS): > 100 µM
TGI (U251 CNS): > 100 µM
TGI (HT29 colon): > 100 µM
TGI (MCF7 breast): > 100 µM
TGI (SK-MEL-5 melanoma): > 100 µM
TGI (HCT-116 colon): > 100 µM
TGI (SN12C renal): > 100 µM

O=C1CCCCC/C1=C\c1ccc([N+](=O)[O-])cc1
TGI (SF-295 CNS): > 100 µM
TGI (U251 CNS): > 100 µM
TGI (CCRF-CEM leukemia): 70.5 µM
TGI (HT29 colon): 77.7 µM
TGI (MCF7 breast): > 100 µM
TGI (SK-MEL-5 melanoma): 43.7 µM
TGI (HCT-116 colon): 57.6 µM
TGI (SN12C renal): 59.6 µM

O=C(N/N=C/C=C/c1ccc([N+](=O)[O-])o1)c1cc2ccccc2cc1O
GI50 (HCT-15 colon): 0.465 µM
TGI (HCT-15 colon): 4.23 µM
GI50 (NCI-H522 lung): 0.486 µM
TGI (NCI-H522 lung): 2.72 µM
GI50 (SF-295 CNS): 3.37 µM
TGI (SF-295 CNS): 21.2 µM
GI50 (U251 CNS): 1.42 µM
TGI (U251 CNS): 4.16 µM
GI50 (HT29 colon): 2.15 µM
TGI (HT29 colon): 7.05 µM
GI50 (MCF7 breast): 0.711 µM
TGI (MCF7 breast): 3.54 µM
GI50 (SK-MEL-5 melanoma): 0.349 µM
TGI (SK-MEL-5 melanoma): 1.48 µM
GI50 (HCT-116 colon): 0.326 µM
TGI (HCT-116 colon): 1.4 µM
GI50 (SN12C renal): 2.02 µM
TGI (SN12C renal): 18.9 µM

Nc1ccc(S(=O)(=O)c2ccc(NCN3C(=O)NC(=O)C(=O)C3=O)cc2)cc1
TGI (HCT-15 colon): > 100 µM
TGI (NCI-H522 lung): > 100 µM
TGI (SF-295 CNS): > 100 µM
TGI (U251 CNS): > 100 µM
TGI (CCRF-CEM leukemia): > 100 µM
TGI (HT29 colon): > 100 µM
TGI (SK-MEL-5 melanoma): > 100 µM
TGI (HCT-116 colon): > 100 µM
TGI (SN12C renal): > 100 µM

C/C=C/c1cc(=O)c([C@@H]2OC(=O)c3cc(OC)cc(OC)c32)co1
TGI (SF-295 CNS): > 100 µM
TGI (CCRF-CEM leukemia): > 100 µM
TGI (HT29 colon): > 100 µM
TGI (SK-MEL-5 melanoma): > 100 µM
TGI (HCT-116 colon): > 100 µM

Cc1ccc2c(=O)cc(-c3ccc(Cl)s3)[nH]c2n1
TGI (HCT-15 colon): > 100 µM
TGI (SF-295 CNS): 4.85 µM
TGI (U251 CNS): > 100 µM
TGI (CCRF-CEM leukemia): > 100 µM
TGI (HT29 colon): > 52.4 µM
TGI (MCF7 breast): > 100 µM
TGI (SK-MEL-5 melanoma): 17.7 µM
TGI (HCT-116 colon): > 55.3 µM
TGI (SN12C renal): > 52.9 µM

CC(=O)OCC1OC(SC2=N/C(=C\c3ccc(Br)s3)C(=O)N2CN2CCOCC2)C(OC(C)=O)C(OC(C)=O)C1OC(C)=O (stereo not given)
TGI (HCT-15 colon): 49.1 µM
TGI (NCI-H522 lung): 23.6 µM
TGI (SF-295 CNS): 52 µM
TGI (U251 CNS): 32.2 µM
TGI (HT29 colon): 34.2 µM
TGI (MCF7 breast): 33.8 µM
TGI (SK-MEL-5 melanoma): 33.5 µM
TGI (HCT-116 colon): 28.3 µM
TGI (SN12C renal): 32.2 µM
